The text below walks through data of patent publication EP4692091A1, “CA[…], AND PHARMACEUTICAL COMPOSITION, PREPARATION METHOD THEREFOR AND USE THEREOF” (Changchun Genescience Pharmaceutical Co., Ltd., priority 2023, dated 2024).

Assay type in all cases: cell-based
Assay [1] has as its system SK-BR-3. In words: Inhibition of proliferation of SK-BR-3 cells by compounds (CellTiter-Glo, 72 h). The conditions noted are these: SK-BR-3, 72 h incubation. The method, then: 3: Test method (1) Cell plating: first, tumor cells SK-BR-3 were cultured using a corresponding culture medium, trypsinized, centrifuged, resuspended for counting, adjusted to an appropriate concentration, and then plated on a 384-well plate. (2) Co-incubation of the compounds and tumor cells: after the cells adhered to the wall, 100 nL of a diluted bioactive substance (test compound) was added to the cell culture plate using ECHO, the final concentration of DMSO in wells of the cell plate was 0.33%, and the incubation was performed in an incubator at 37°C with 5% CO2 for 72 h. (3) After the incubation was complete, 30 µL of a CTG reagent (CelltiterGlo kit) was added to each well. The culture was oscillated on a fast oscillator for 2 min, centrifuged at 1,000 rpm for 1 min, and kept away from light at room temperature for 30 min. The chemiluminescence signal value was read using an Envision instrument. (4) Cell viability detection: IC50 was calculated using GraphPad Prism 8 software, and the IC50 of the compounds was obtained using the following nonlinear fitting formula (see Table 1) : 1. Y=Bottom+(Top-Bottom)/(1+10^((LogIC50-X)*HillSlope)) 2. […] Table 1 Antiproliferative activity of test compounds on SK-BR-3
For orientation: In ATP-based viability assays light output follows the ATP content of the culture.

Assay [2] concerns MDA-MB-468. In words: Inhibition of proliferation of MDA-MB-468 cells by test compounds (CellTiter-Glo, 72 h). The conditions noted are these: MDA-MB-468, 72 h incubation. The method, then:
3: Test method • (1) Cell plating: first, tumor cells MDA-MB-468 were cultured using a corresponding culture medium, trypsinized, centrifuged, resuspended for counting, adjusted to an appropriate concentration, and then plated on a 384-well plate. • (2) Co-incubation of the compounds and tumor cells: after the cells adhered to the wall, 100 nL of a diluted bioactive substance (test compound) was added to the cell culture plate using ECHO, the final concentration of DMSO in wells of the cell plate was 0.33%, and the incubation was performed in an incubator at 37°C with […] for 72 h. • (3) After the incubation was complete, 30 µL of a CTG reagent (CelltiterGlo kit) was added to each well. The culture was oscillated on a fast oscillator for 2 min, centrifuged at 1,000 rpm for 1 min, and kept away from light at room temperature for 30 min. The chemiluminescence signal value was read using an Envision instrument. • (4) Cell viability detection: IC50 was calculated using GraphPad Prism 8 software, and the IC50 of the compounds was obtained using the following nonlinear fitting formula (see Table 2): • 6. Y=Bottom+(Top-Bottom)/(1+10^((LogIC50-X)*HillSlope)) • 7. […] Table 2 Antiproliferative activity of test compounds on MDA-MB-468

The test system of assay [3] is NCI-N87. Briefly: Inhibition of proliferation of NCI-N87 cells by test compounds (CellTiter-Glo, 72 h). The conditions noted are these: NCI-N87, 72 h incubation. The method, then:
3: Test method (1) Cell plating: first, tumor cells NCI-N87 were cultured using a corresponding culture medium, trypsinized, centrifuged, resuspended for counting, adjusted to an appropriate concentration, and then plated on a 384-well plate. (2) Co-incubation of the compounds and tumor cells: after the cells adhered to the wall, 100 nL of a diluted bioactive substance (test compound) was added to the cell culture plate using ECHO, the final concentration of DMSO in wells of the cell plate was 0.33%, and the incubation was performed in an incubator at 37°C with […] for 72 h. (3) After the incubation was complete, 30 µL of a CTG reagent (CelltiterGlo kit) was added to each well. The culture was oscillated on a fast oscillator for 2 min, centrifuged at 1,000 rpm for 1 min, and kept away from light at room temperature for 30 min. The chemiluminescence signal value was read using an Envision instrument. (4) Cell viability detection: IC50 was calculated using GraphPad Prism 8 software, and the IC50 of the compounds was obtained using the following nonlinear fitting formula (see Table 3) : 11. Y=Bottom+(Top-Bottom)/(1+10^((LogIC50-X)*HillSlope)) 12. […] Table 3 Antiproliferative activity of test compounds on cells NCI-N87

What is called IC50 is the concentration that inhibits the measured activity by half. A higher IC50 goes with weaker potency in that assay.

As to `CC[C@@]1(O)C(=O)OCc2c1cc1n(c2=O)Cc2c-1nc1cc(F)c(C)c3c1c2C(NC(=O)C[C@@H](C)O)CCC3` (stereo partly drawn) [6-1, (R)-N-((1S,10S)-10-ethyl-6-fluoro-10-hydroxy-5-methyl-11,14-dioxo-1,2,3,4,10,11,14,16-octahydro-13H-cyclohepta[3',4',6,7]indolizino[1,2-b]quinolin-1-yl)-3-hydroxybutanamide], the IC50 in assay [1] was determined as 11 nM; in assay [2], 8.8 nM; in assay [3], 7.5 nM.

With `C=Cc1c(F)cc2nc3c(c4c2c1CCC4NC(=O)C[C@@H](C)O)Cn1c-3cc2c(c1=O)COC(=O)[C@]2(O)CC` (stereo partly drawn) [7-2, (R)-N-((1R,9S)-9-ethyl-5-fluoro-9-hydroxy-10,13-dioxo-4-vinyl-2,3,9,10,13,15-hexahydro-1H,12H-benzo[de]pyrano[3',4',6,7]indolizino[1,2-b]quinolin-1-yl)-3-hydroxybutanamide], the figures for the half-maximal inhibitory concentration (IC50) in assay [1], in assay [2] and in assay [3] were 7.6 nM, 4.4 nM and 4.9 nM, respectively.

Consider `CC[C@@]1(O)C(=O)OCc2c1cc1n(c2=O)Cc2c-1nc1cc(F)c(OCC(F)(F)F)c3c1c2C(NC(=O)C[C@@H](C)O)CC3` (stereo partly drawn) [8-1, (R)-N-((1S,9S)-9-ethyl-5-fluoro-9-hydroxy-10,13-dioxo-4-(2,2,2-trifluoroethoxy)-2,3,9,10,13,15-hexahydro-1H,12H-benzo[de]pyrano[3',4',6,7]indolizino[1,2-b]quinolin-1-yl)-3-hydroxybutanamide], for which the results for the half-inhibitory concentration (IC50) in assay [1], in assay [2] and in assay [3] were 44 nM, 13 nM and 4.2 nM, respectively.

Take `CC[C@@]1(O)C(=O)OCc2c1cc1n(c2=O)Cc2c-1nc1cc(F)c(C)c3c1c2[C@H](NC(=O)C[C@@H](C)O)CCO3` [24-1, (R)-N-((1R,10S)-10-ethyl-6-fluoro-10-hydroxy-5-methyl-11,14-dioxo-2,3,10,11,14,16-hexahydro-1H,13H-oxepino[4,3,2-de]pyrano[3',4':6,7]indolizino[1,2-b]quinolin-1-yl)-3-hydroxybutanamide]: the half-inhibitory concentration (IC50) in assay [1] (Homo sapiens, SK-BR-3, 72 h) stood at 47 nM; in assay [2] (Homo sapiens, MDA-MB-468, 72 h), 38 nM; in assay [3] (Homo sapiens, NCI-N87, 72 h) it was 65 nM.

For the compound `CC[C@@]1(O)C(=O)OCc2c1cc1n(c2=O)Cc2c-1nc1cc(F)c(C)c3c1c2[C@@H](NC(=O)C[C@@H](C)O)CCO3` [24-2, (R)-N-((1S,10S)-10-ethyl-6-fluoro-10-hydroxy-5-methyl-11,14-dioxo-2,3,10,11,14,16-hexahydro-1H,13H-oxepino[4,3,2-de]pyrano[3',4':6,7]indolizino[1,2-b]quinolin-1-yl)-3-hydroxybutanamide], the IC50 stood at 16 nM in assay [1] (Homo sapiens, SK-BR-3, 72 h); 14 nM in assay [2] (Homo sapiens, MDA-MB-468, 72 h); 24 nM in assay [3] (Homo sapiens, NCI-N87, 72 h).

For the compound `CC[C@@]1(O)C(=O)OCc2c1cc1n(c2=O)Cc2c-1nc1cc(F)c(C)c3c1c2[C@@H](NC(=O)[C@H](O)C1CC1)CCO3` [35-1, (R)-2-cyclopropyl-N-((1S,10S)-10-ethyl-6-fluoro-10-hydroxy-5-methyl-11,14-dioxo-2,3,10,11,14,16-hexahydro-1H,13H-oxepino[4,3,2-de]pyrano[3',4':6,7]indolizino[1,2-b]quinolin-1-yl)-2-hydroxyacetamide], the IC50 was determined as 16 nM in assay [1] (Homo sapiens, SK-BR-3, 72 h); 12 nM in assay [2] (Homo sapiens, MDA-MB-468, 72 h); 14 nM in assay [3] (Homo sapiens, NCI-N87, 72 h).

`CC[C@@]1(O)C(=O)OCc2c1cc1n(c2=O)Cc2c-1nc1cc(F)c(C)c3c1c2[C@@H](NC(=O)[C@@H](O)C1CC1)CCO3` [35-2, (S)-2-cyclopropyl-N-((1S,10S)-10-ethyl-6-fluoro-10-hydroxy-5-methyl-11,14-dioxo-2,3,10,11,14,16-hexahydro-1H,13H-oxepino[4,3,2-de]pyrano[3',4':6,7]indolizino[1,2-b]quinolin-1-yl)-2-hydroxyacetamide]: the IC50 in assay [1] (Homo sapiens, SK-BR-3, 72 h) was 9 nM; in assay [2] (Homo sapiens, MDA-MB-468, 72 h) it was 9 nM; in assay [3] (Homo sapiens, NCI-N87, 72 h), 10 nM.

Take `CC[C@@H](O)CC(=O)N[C@H]1CCCc2c(C)c(F)cc3nc4c(c1c23)Cn1c-4cc2c(c1=O)COC(=O)[C@]2(O)CC` [36-1, (R)-N-((1S,10S)-10-ethyl-6-fluoro-10-hydroxy-5-methyl-11,14-dioxo-1,2,3,4,10,11,14,16-octahydro-13H-cyclohepta[3',4':6,7]indolizino[1,2-b]quinolin-1-yl)-3-hydroxypentanamide]: the half-inhibitory concentration (IC50) turned out to be 9.2 nM in assay [1], 14 nM in assay [2] and 8.5 nM in assay [3].

For the compound `CC[C@H](O)CC(=O)N[C@H]1CCCc2c(C)c(F)cc3nc4c(c1c23)Cn1c-4cc2c(c1=O)COC(=O)[C@]2(O)CC` [36-2, (S)-N-((1S,10S)-10-ethyl-6-fluoro-10-hydroxy-5-methyl-11,14-dioxo-1,2,3,4,10,11,14,16-octahydro-13H-cyclohepta[3',4':6,7]indolizino[1,2-b]quinolin-1-yl)-3-hydroxypentanamide], the IC50 in assay [1] is 4.4 nM; in assay [2], 6.4 nM; in assay [3], 3.9 nM.

For the compound `CC[C@@]1(O)C(=O)OCc2c1cc1n(c2=O)Cc2c-1nc1cc(F)c(C)c3c1c2[C@@H](NC(=O)C[C@@H](O)C(C)C)CCC3` [37-2, (R)-N-((1S,10S)-10-ethyl-6-fluoro-10-hydroxy-5-methyl-11,14-dioxo-1,2,3,4,10,11,14,16-octahydro-13H-cyclohepta[3',4':6,7]indolizino[1,2-b]quinolin-1-yl)-3-hydroxy-4-methylpentanamide], the IC50 stood at 6.6 nM in assay [1], 6.6 nM in assay [2] and 3.2 nM in assay [3].

Turning to “(R)-2-cyclopropyl-N-((1S,10S)-5-cyclopropyl-10-ethyl-6-fluoro-10-hydroxy-11,14-dioxo-1,2,3,4,10,11,14,16-octahydro-13H-cyclohepta[3',4':6,7]indolizino[1,2-b]quinolin-1-yl)-2-hydroxyacetamide [33-1]”, the IC50 in assay [1] came to 7.8 nM; in assay [2], 6 nM; in assay [3], 8 nM.

“(R)-3-cyclopropyl-N-((1S,10S)-10-ethyl-6-fluoro-10-hydroxy-5-methyl-11,14-dioxo-1,2,3,4,10,11,14,16-octahydro-13H-cyclohepta[3',4':6,7]indolizino[1,2-b]quinolin-1-yl)-3-hydroxypropanamide [38-1]”: the half-maximal inhibitory concentration (IC50) is 12 nM in assay [1], 13 nM in assay [2] and 7.5 nM in assay [3].

As to “(S)-2-cyclopropyl-N-((1S,10S)-5-cyclopropyl-10-ethyl-6-fluoro-10-hydroxy-11,14-dioxo-1,2,3,4,10,11,14,16-octahydro-13H-cyclohepta[3',4':6,7]indolizino[1,2-b]quinolin-1-yl)-2-hydroxyacetamide [33-2]”, the values for the IC50 in assay [1], in assay [2] and in assay [3] were 8.4 nM, 5 nM and 9 nM, respectively.

For “(S)-3-cyclopropyl-N-((1S,9S)-4-cyclopropyl-9-ethyl-5-fluoro-9-hydroxy-10,13-dioxo-2,3,9,10,13,15-hexahydro-1H,12H-benzo[d]pyrano[3',4':6,7]indolizino[1,2-b]quinolin-1-yl)-3-hydroxypropanamide [34-1]”, the results for the IC50 in assay [1], in assay [2] and in assay [3] were 5.1 nM, 4 nM and 6 nM, respectively.

In the case of “(S)-3-cyclopropyl-N-((1S,10S)-10-ethyl-6-fluoro-10-hydroxy-5-methyl-11,14-dioxo-1,2,3,4,10,11,14,16-octahydro-13H-cyclohepta[3',4':6,7]indolizino[1,2-b]quinolin-1-yl)-3-hydroxypropanamide [38-2]”, the half-inhibitory concentration (IC50) in assay [1] turned out to be 5.4 nM; in assay [2], 5.7 nM; in assay [3] it was 2.9 nM.
